From publication PMC12717099, “Peptidoglycan recruitment by a penicillin binding protein” (Nature Communications, 2025)

How the values were obtained:
Assay type in all cases: binding, Enterococcus faecium
PBP5:PenG complex (1:8) = test: NMR CSP titration of stem peptides into PenG-saturated PBP5; settings: PBP5:PenG 1:8, then SP titration
Description: Data was processed using Topspin 4.1.4 (Bruker) and analyzed using NMRFAM-SPARKY 1.3 and Poky (build number 20240829)[20],[21]. The sequence-specific backbone assignment of PBP5 is publicly available at BMRBID 51690.
SPs (SP1 to SP7) were titrated into 0.5 mM (^2H,^15N)-labeled and 0.1 mM (^2H,^15N)/^13C ILV labeled PBP5 at molar ratios of 0:1, 5:1, 10:1, 20:1, 40:1, 60:1, and 80:1 (stem peptide/SP:PBP5; molar ratios). 2D [^1H,^15N] TROSY or 2D [^1H,^13C] HMQC spectra were recorded for each titration point. SPs were solubilized in NMR buffer. Chemical shift perturbations (Δδ) between PBP5 and SP bound PBP5 spectra were calculated using Eq. 1,1 Δδppm=ΔδH^2+ΔδX/Y^2 where, X is ^15N or ^13C and Y is the constant i.e., 10 for ^15N and 4 for ^13C.
Residues with significant CSPs were identified by calculating the standard deviation of all CSPs (σ), then excluding any CSPs larger than average+2σ, recalculating σ as a new corrected σ0, and then repetitively removing CSPs above 2σ0 until no additional CSPs can be removed. CSPs above ≥2σ2 was the statistical threshold for ^1H/^15N backbone CSP analysis and ≥2xσ1 for ^1H/^13C methyl ILV data for the interaction of SP1 with PBP5. The same threshold values were used for all other peptides to allow for direct comparison with the SP1/PBP5 interaction. […]

PBP5:PenG complex = test: 1D 1H STD NMR of stem peptides with PBP5:PenG; settings: for STD amplification factor: PenG-saturated PBP5, 2 s saturation
Text: (§1) Total saturation time for STD measurements was 2 s.
(§2) Overlapped peaks were completely excluded from the analysis.

PBP5 = test: 1D 1H STD NMR of stem peptides with PBP5; settings: for STD % to SP1: normalised to highest SP1:PBP5 value; for STD amplification factor: protein:peptide 1:100, 2 s saturation, 308 K
Text: as §1, §2

Substance: D-Lac-L-Ala-D-iGln-L-Lys(D-iAsn)-D-Ala-D-Ala [SP1]
- CSPs in presence vs absence of penicillin, in words (PBP5:PenG complex (1:8)): nearly identical
- STD amplification factor, ref to SP1 (fraction) (PBP5:PenG complex; 1H DA4α,LA1α): 0.3134
- STD, ref to SP1 (percent) (PBP5:PenG complex; 1H DA4α,LA1α): 31.3366
- STD amplification factor (PBP5:PenG complex; 1H DA4α,LA1α): 8.432
- STD amplification factor, ref to SP1 (fraction) (PBP5:PenG complex; 1H DA4β, DLacβ): 0.2401
- STD, ref to SP1 (percent) (PBP5:PenG complex; 1H DA4β, DLacβ): 24.0089
- STD amplification factor (PBP5:PenG complex; 1H DA4β, DLacβ): 6.4604
- STD amplification factor, ref to SP1 (fraction) (PBP5:PenG complex; 1H DA5α): 0.5713
- STD, ref to SP1 (percent) (PBP5:PenG complex; 1H DA5α): 57.1289
- STD amplification factor (PBP5:PenG complex; 1H DA5α): 15.3725
- STD amplification factor, ref to SP1 (fraction) (PBP5:PenG complex; 1H DA5β): 0.2936
- STD, ref to SP1 (percent) (PBP5:PenG complex; 1H DA5β): 29.3585
- STD amplification factor (PBP5:PenG complex; 1H DA5β): 7.9
- STD amplification factor, ref to SP1 (fraction) (PBP5:PenG complex; 1H DQ2α,Dlacα,iNα): 0.2074
- STD, ref to SP1 (percent) (PBP5:PenG complex; 1H DQ2α,Dlacα,iNα): 20.7354
- STD amplification factor (PBP5:PenG complex; 1H DQ2α,Dlacα,iNα): 5.58
- STD amplification factor, ref to SP1 (fraction) (PBP5:PenG complex; 1H DQ2β (first listed)): 0.7176
- STD, ref to SP1 (percent) (PBP5:PenG complex; 1H DQ2β (first listed)): 71.7627
- STD amplification factor (PBP5:PenG complex; 1H DQ2β (first listed)): 19.3102
- STD amplification factor, ref to SP1 (fraction) (PBP5:PenG complex; 1H DQ2β (second listed)): 0.813
- STD, ref to SP1 (percent) (PBP5:PenG complex; 1H DQ2β (second listed)): 81.3002
- STD amplification factor (PBP5:PenG complex; 1H DQ2β (second listed)): 21.8766
- STD amplification factor, ref to SP1 (fraction) (PBP5:PenG complex; 1H DQ2γ): 0.3426
- STD, ref to SP1 (percent) (PBP5:PenG complex; 1H DQ2γ): 34.2606
- STD amplification factor (PBP5:PenG complex; 1H DQ2γ): 9.219
- STD amplification factor, ref to SP1 (fraction) (PBP5:PenG complex; 1H K3α): 0.4115
- STD, ref to SP1 (percent) (PBP5:PenG complex; 1H K3α): 41.1521
- STD amplification factor (PBP5:PenG complex; 1H K3α): 11.0734
- STD amplification factor, ref to SP1 (fraction) (PBP5:PenG complex; 1H K3β): 0.9267
- STD, ref to SP1 (percent) (PBP5:PenG complex; 1H K3β): 92.6679
- STD amplification factor (PBP5:PenG complex; 1H K3β): 24.9355
- STD amplification factor, ref to SP1 (fraction) (PBP5:PenG complex; 1H K3δ): 0.5468
- STD, ref to SP1 (percent) (PBP5:PenG complex; 1H K3δ): 54.6801
- STD amplification factor (PBP5:PenG complex; 1H K3δ): 14.7135
- STD amplification factor, ref to SP1 (fraction) (PBP5:PenG complex; 1H K3ε): 0.1626
- STD, ref to SP1 (percent) (PBP5:PenG complex; 1H K3ε): 16.2603
- STD amplification factor (PBP5:PenG complex; 1H K3ε): 4.3754
- STD amplification factor, ref to SP1 (fraction) (PBP5:PenG complex; 1H LA1β): 0.2447
- STD, ref to SP1 (percent) (PBP5:PenG complex; 1H LA1β): 24.4674
- STD amplification factor (PBP5:PenG complex; 1H LA1β): 6.584
- STD amplification factor, ref to SP1 (fraction) (PBP5:PenG complex; 1H iNβ): 0.3143
- STD, ref to SP1 (percent) (PBP5:PenG complex; 1H iNβ): 31.4336
- STD amplification factor (PBP5:PenG complex; 1H iNβ): 8.458
- STD amplification factor as fraction of highest SP1:PBP5 value (PBP5; 1H DA4α,LA1α): 0.3688
- STD % to SP1 (PBP5; 1H DA4α,LA1α): 36.8831%
- STD amplification factor (PBP5; 1H DA4α,LA1α): 9.925
- STD amplification factor as fraction of highest SP1:PBP5 value (PBP5; 1H DA4β, DLacβ): 0.2569
- STD % to SP1 (PBP5; 1H DA4β, DLacβ): 25.6923%
- STD amplification factor (PBP5; 1H DA4β, DLacβ): 6.913
- STD amplification factor as fraction of highest SP1:PBP5 value (PBP5; 1H DA5α): 0.6484
- STD % to SP1 (PBP5; 1H DA5α): 64.837%
- STD amplification factor (PBP5; 1H DA5α): 17.4466
- STD amplification factor as fraction of highest SP1:PBP5 value (PBP5; 1H DA5β): 0.3281
- STD % to SP1 (PBP5; 1H DA5β): 32.8081%
- STD amplification factor (PBP5; 1H DA5β): 8.828
- STD amplification factor as fraction of highest SP1:PBP5 value (PBP5; 1H DQ2α,Dlacα,iNα): 0.2333
- STD % to SP1 (PBP5; 1H DQ2α,Dlacα,iNα): 23.3322%
- STD amplification factor (PBP5; 1H DQ2α,Dlacα,iNα): 6.278
- STD amplification factor as fraction of highest SP1:PBP5 value (PBP5; 1H DQ2β (first listed)): 0.816
- STD % to SP1 (PBP5; 1H DQ2β (first listed)): 81.5959%
- STD amplification factor (PBP5; 1H DQ2β (first listed)): 21.9561
- STD amplification factor as fraction of highest SP1:PBP5 value (PBP5; 1H DQ2β (second listed)): 0.8819
- STD % to SP1 (PBP5; 1H DQ2β (second listed)): 88.186%
- STD amplification factor (PBP5; 1H DQ2β (second listed)): 23.7294
- STD amplification factor as fraction of highest SP1:PBP5 value (PBP5; 1H DQ2γ): 0.3832
- STD % to SP1 (PBP5; 1H DQ2γ): 38.3191%
- STD amplification factor (PBP5; 1H DQ2γ): 10.3111
- STD amplification factor as fraction of highest SP1:PBP5 value (PBP5; 1H K3α): 0.5115
- STD % to SP1 (PBP5; 1H K3α): 51.1543%
- STD amplification factor (PBP5; 1H K3α): 13.7648
- STD amplification factor as fraction of highest SP1:PBP5 value (PBP5; 1H K3β): 1
- STD % to SP1 (PBP5; 1H K3β): 100%
- STD amplification factor (PBP5; 1H K3β): 26.9084
- STD amplification factor as fraction of highest SP1:PBP5 value (PBP5; 1H K3δ): 0.7475
- STD % to SP1 (PBP5; 1H K3δ): 74.7509%
- STD amplification factor (PBP5; 1H K3δ): 20.1143
- STD amplification factor as fraction of highest SP1:PBP5 value (PBP5; 1H K3ε): 0.2891
- STD % to SP1 (PBP5; 1H K3ε): 28.9129%
- STD amplification factor (PBP5; 1H K3ε): 7.78
- STD amplification factor as fraction of highest SP1:PBP5 value (PBP5; 1H LA1β): 0.276
- STD % to SP1 (PBP5; 1H LA1β): 27.6026%
- STD amplification factor (PBP5; 1H LA1β): 7.427
- STD amplification factor as fraction of highest SP1:PBP5 value (PBP5; 1H iNβ): 0.3449
- STD % to SP1 (PBP5; 1H iNβ): 34.4916%
- STD amplification factor (PBP5; 1H iNβ): 9.281
